From a melting point compilation (Tetko et al.; mined from patent text by program, amines drawn as free bases though some values may be those of a salt)

SMILES | melting point [°C]
CC(=O)OCC1OC(OCCBr)C(OC(C)=O)C(OC(C)=O)C1OC(C)=O (stereo not drawn) | 116 to 117
CC1(CNC=O)CC(=O)c2ccccc2O1 (stereo not drawn) | 96 to 98
O=C(C=Cc1cccnc1)NCC=CCN1CCN(C(c2ccccc2)c2ccccc2)CC1 | 116 to 119
Clc1ccc2nc(-c3ccccn3)nn2c1 | 118 to 119
O=C(N[C@H](Cc1ccc(C(F)(F)F)cc1)[C@@H](O)c1ccc(F)cc1)c1cccc2c1OCC2 (racemic) | 121 to 122
CC1(C)OC(=O)Nc2ccc(-c3coc(C#N)c3)cc21 | 255 to 256
CCOC(=O)C=CC(=O)N1CC1C#N (stereo not drawn) | 54 to 56
Nc1cccc(-c2ccc(CCN3CCN(C(=O)c4ccco4)CC3)cc2)n1 | 152 to 154
Nc1ncc(-c2ccc(C(F)(F)F)cc2)cc1C(F)(F)F | 168
c1ccc2cc(Cn3c(-c4ccc5c(c4)OCO5)nc4ccccc43)ccc2c1 | 180
CN1CC[C@@H]2CC(=O)c3cc(-c4ccccc4)ccc3[C@@H]2C1 (relative stereo) | > 250
CSc1ccc2c(c1)Cc1ccc(CO)cc1O2 | 151 to 153
CN1C(=O)c2ccccc2N(N=O)c2ccccc21 | 95 to 98
CCN(CC)c1ccc(/C=C/c2cc(/C=C/c3ccc4cc[nH]c4c3)[nH]n2)cc1 | 201 to 204
COc1ccc(C(=O)C#N)cc1 | 51 to 53
CC(=O)c1c(C)c(C#N)c2nc(C3CC3)oc2c1N1CC[C@H](N(C)C)C1 | 142
O=C(O)c1ccc(-n2cnnc2S)cc1 | > 300
COc1ccc2c(c1)Sc1c(cc(OC)c(OC)c1Br)N2C | 135 to 137
O=C1NC(=O)C2c3c([nH]c4ccc(Cl)cc34)-c3[nH]c4ccc(Cl)cc4c3C12 (stereo not drawn) | > 300
NCCCN1CCN(C(c2ccccc2)c2ccccc2)CC1 | 62 to 63
N#Cc1nn(-c2c(Cl)cc(C(F)(F)F)cc2Cl)c(Cl)c1C#CBr | 153
Cn1cc(-c2cccc(C#N)c2)c(=O)c(-c2cccc(C#N)c2)c1 | 322 to 327
N#Cc1cccc(S(=O)(=O)N2c3ccccc3C[C@H]2C(=O)NCCc2ccccc2)c1 | 50
CC(C)S(=O)(=O)ON=C(C#N)c1cccs1 | 80 to 82

SMILES | melting point [°C]
Cc1cc(C(C)(C)C#N)cc(C(C)(C)C#N)c1 | 126 to 127
O=C(Nc1ccc(N2CCN(C(C(=O)NCC(F)(F)F)c3ccccc3)CC2)cc1)c1ccccc1-c1ccc(C(F)(F)F)cc1 (stereo not drawn) | 208
CC(C)c1cccc(C(C)C)c1NC(=O)NC1COc2ccccc2C1 (stereo not drawn) | 186 to 188
O=C1CC2c3cc(F)ccc3CCN2C2CCCCC12 (stereo not drawn) | 130 to 136
CC(C)CCN1C(=O)C(NC(=O)Oc2cccc(N(C)C)c2)C(=O)N(c2ccccc2)c2cc(F)ccc21 (stereo not drawn) | 229 to 230
Cc1ccc(C)n1C1=CC2=C(CC1)CCc1[nH]c(=O)c(=O)[nH]c12 | > 265
CCCCN1C(=O)NC(Cc2ccc(C#N)cc2)C1=O (stereo not drawn) | 136
CN1CCc2cc(O)c(O)c(Sc3cccs3)c2CC1 | 189 to 191
O=C(O)C1SC(C23CC4CC(CC(C4)C2)C3)=NN1C(=O)CCS (stereo not drawn) | 183 to 184
Cn1cnnc1C(c1ccc(Cl)cc1)c1ccc2c(c1)c(-c1cccc(Cl)c1)cc(=O)n2C (stereo not drawn) | 153
C[Si](C)(C)C#Cc1ccc2c(c1)C1(c3ccccc3-c3ccccc31)c1cc(C#C[Si](C)(C)C)ccc1-2 | 267 to 269
Cc1csc2c1-n1cccc1C2=NO | 198
CC(C)(C)CC(C)(C)Nc1nc(N2CC3CCC(CC3)C2)nc(C(C)(C)C)n1 | 164 to 168
Oc1ccc([C@H]2CC[C@H](CCC3OCCO3)CC2)cc1 | 154
COc1cc(-c2cccs2)ccc1C(=O)C=Cc1ccc(F)c(F)c1 | 73 to 79
Cc1cn(C2CCc3ccccc3C2)c(=S)n1Cc1ccc(C(=O)O)cc1 (stereo not drawn) | 181 to 182
O=C(CCC1CCCCC1)NC1N=C(c2ccccc2)c2ccccc2N2CCN=C12 (stereo not drawn) | 202 to 208
COc1ccc2cc(-c3ccc(OCCN4CCCC4)cc3)sc2c1 | 151 to 154
CN1CCC(c2c(O)cc(O)c3c(=O)cc(-c4ccccc4Cl)oc23)C1Cn1ccnc1 (stereo not drawn) | 249 to 250
CC(CCC(=O)O)C1CCC2C3C(O)CC4CC(O[Si](C)(C)C(C)(C)C)CCC4(C)C3CC(O)C12C (stereo not drawn) | 146
COc1ccc2c(c1O)C13CCN(CC4CC4)C(C2)C1CC(C)C(=O)C3 (stereo not drawn) | 176 to 178
N#Cc1ccc(C2=NOC(CO)C2)c2ccccc12 (stereo not drawn) | 138 to 139
CC1(C)C2C=CC3(C)C(C2)C(=O)CCC13O (stereo not drawn) | 112 to 115

Now from value to compound:

melting point [°C] | SMILES
249 to 252 | Cc1c(C)c2c(c(C)c1O)C(=O)CC(COc1ccc(CC3SC(=O)NC3=O)cc1)O2 (stereo not drawn)
129 to 131 | CCOC(=O)C1C(c2ccco2)C(C(=O)OCC)C(O)(C(F)(F)F)NC1(O)C(F)(F)F (stereo not drawn)
70 to 72 | CCOC(=O)c1cnc(Cl)c([N+](=O)[O-])c1NC
161 to 162 | CCOC(=O)c1ccc(C(C(N)=O)C(Cc2ccccc2)c2ccccc2N2CCCCC2)cc1 (stereo not drawn)
207 to 209 | Cn1cc2c3c(c(Cl)cc2n1)CCC3=O
128 | NC(=O)c1ccc(F)c2c1OCC(N)C2 (stereo not drawn)
210 | CCOC(=O)C1=C(C)Nc2nc(N3CCOCC3)nc(N3CCOCC3)c2C1c1cccc(C#N)c1 (stereo not drawn)
43 to 44 | CCCCOc1cc(Cl)c(OCCCC)cc1N
235 to 242 | Cc1cccc(=O)c(NC(=O)C2=C(O)c3ccccc3S(=O)(=O)N2C)c1
202 | Cc1nc(S)nn1-c1ccc([N+](=O)[O-])cc1
87 to 88 | Cc1oc(-c2cccnc2)nc1CCl
240 to 242 | COC(=O)C1CN(C(=O)c2ccccc2-n2cccn2)c2ccc(C)cc2CN1S(=O)(=O)c1ccc(OC)cc1 (stereo not drawn)
176 to 177 | Cc1c(NC(=O)c2ccc(OCc3ccccc3)cc2F)ccc2cc(CN3CCCC3)cnc12
165 to 166 | CCOC(=O)c1cc2ccc3cc4ccccc4cc3c2n1C
109 to 110 | CCCNC(=O)C1(CCCCc2ccc([N+](=O)[O-])cc2)c2ccccc2-c2ccccc21
164 to 165 | Cc1ccc(NC(=O)N(C)N)cc1NC(=O)N(C)N
122 to 124 | COc1ccc(F)c(C(N)=O)c1
150 to 152 | Nc1nonc1C(=O)NCCCCCC(=O)NO
151 to 154 | COc1cc(I)c(C(=O)Cl)cc1OC
281 to 282 | Cc1nc(N)[nH]c(=O)c1N1CCN(c2ccc(CN)cc2)CC1
109 to 112 | COC(=O)c1cccc(C=C2COc3ccc(OCc4ccccc4)cc3C2=O)c1
126 | CCOC(=O)C1=C(C)NC(N=CN(C)C)=C(C(=O)OCC)C1c1ccccc1[N+](=O)[O-] (stereo not drawn)
125 to 127 | CCC(=O)OC[C@H]1O[C@@H]2[C@@H](Sc3ccc(Cl)cc3N2CCN(CC)CC)[C@@H](OC(=O)CC)[C@@H]1OC(=O)CC
102 to 104 | CCc1cn(C(C)(C)C(=O)N(C)C)nc1-c1ccccc1Cl
132 to 134 | CCCOc1ccc(CCNC(=O)C=Cc2ccc(Cl)cc2Cl)cc1OCCC
80.7 to 84.2 | C[C@]1(CN2CCC(NCCc3ccc(C(F)(F)F)cc3)CC2)Cn2cc([N+](=O)[O-])nc2O1

melting point [°C] | SMILES
156 to 158 | COc1cccc2cc(CN(C)CCNC(=O)C34CC5CC(CC(C5)C3)C4)oc12
93 to 94 | CCOC(=O)Oc1ccc(/C=C(\C)c2ccc3c(c2)SC(C)(C)S3)cc1
123 to 125 | COc1c(O)ccc(C(=O)c2ccccc2)c1Cl
174 to 175 | C=C1C(OC(C)=O)C(CO)OC1n1ccc(NC(C)=O)nc1=O (stereo not drawn)
175 to 178 | CC(C)CCC(=O)NC1(C(=O)NC2N=C(C(C)(C)C)c3ccccc3N(C)C2=O)CCCC1 (stereo not drawn)
220 to 221 | CCc1[nH]n(C2CCCC2)c2nc(-c3ccccc3OCCCN3CCOCC3)nc(=O)c1-2
210 to 212 | CCN(CC)CC1CCCCN1CC(=O)N1c2ccccc2C(=O)Nc2cccnc21 (stereo not drawn)
83 to 86 | COC(=O)CCCCOc1cc2c(c(Cl)c1Cl)C(=O)C(C)(C1CCCC1)C2 (stereo not drawn)
228 | N=c1sc2cc(OC(F)(F)F)ccc2n1CC(N)=O
23 to 24.5 | CCOC(=O)c1c(C(F)(F)F)nc(C(F)(F)F)c(C)c1O
149 to 151 | CC(=O)c1cc(Oc2ccc(NC(=O)Nc3ccccc3C(F)(F)F)cc2)ncn1
72 | CCC(Cl)(CC)CC(=O)c1cc(C(C)(C)C)c(O)c(C(C)(C)C)c1
98 to 99 | CCOC(=O)C1CCN(c2nc(COc3ccc(CCl)cc3OC)c(C)s2)CC1
142 to 144 | COC(=O)c1cc(-c2ncnc(C)c2C#N)c(F)cc1Cl
113 to 115 | COC(=O)Cc1c(C)ncnc1Oc1cccc(-c2ccccc2)c1
213 to 214 | Cc1[nH]c2ccccc2c1C(=O)C(=O)N1CCC(Oc2ccc(F)cc2)CC1
109 to 112 | CN(C)C(=O)N1CCC(C(=O)N(CCCN2CCC(Cc3ccccc3)CC2)c2ccc(Cl)c(Cl)c2)CC1
> 250 | CC(C)n1nc(-c2sc(NC(=O)c3ccc(CCl)cc3)nc2-c2ccccc2)ccc1=O
210 to 213 | CCOc1ccc(C(=O)Nc2c(Cl)cncc2Cl)c2c3ccccc3n(Cc3ccccc3)c12
166 to 167 | CNc1nc(C=CC(=O)OC)c(-c2ccncc2)s1
155 to 157 | CCCCOCCOc1ccc(-c2ccc(N3CCOCC3)c(C=CC(=O)O)c2)cc1
171 to 173 | Cc1cc(O)c2c(c1C)C(=O)CC2
195 to 198 | CCc1ccc2c(c1)C=Cc1cc(C)ccc1C2c1cn(-c2nccc(C(=O)NCC(=O)O)n2)c(=O)[nH]c1=O (stereo not drawn)
38 to 39 | CCCCCCCCCCCOc1cccc(CCCC(NC(C)=O)(C(=O)OCC)C(=O)OCC)c1
144 to 145 | CN(C(=O)OC[C@@]1(C)Cn2cc([N+](=O)[O-])nc2O1)c1ccc(OC(F)(F)F)cc1
